From ChEMBL document CHEMBL1128795, “N-(Quinuclidin-3-yl)-2-(1-methyl-1H-indol-3-yl)-2-oxo-acetamide: a high affinity 5-HT3 receptor partial agonist” (Bioorg Med Chem Lett, 1995)

Key:
Rattus norvegicus [1] = species: Rattus norvegicus; assay: Tested for maximum response in depolarization of isolated rat vagus nerve measured at dose 1 uM; type: functional
[2] = biological target: T1, 5-hydroxytryptamine receptor 1A (Mus musculus, UniProt Q64264); assay: Binding affinity against 5-hydroxytryptamine 1A receptor
T1 sequence (Q64264 whole entry): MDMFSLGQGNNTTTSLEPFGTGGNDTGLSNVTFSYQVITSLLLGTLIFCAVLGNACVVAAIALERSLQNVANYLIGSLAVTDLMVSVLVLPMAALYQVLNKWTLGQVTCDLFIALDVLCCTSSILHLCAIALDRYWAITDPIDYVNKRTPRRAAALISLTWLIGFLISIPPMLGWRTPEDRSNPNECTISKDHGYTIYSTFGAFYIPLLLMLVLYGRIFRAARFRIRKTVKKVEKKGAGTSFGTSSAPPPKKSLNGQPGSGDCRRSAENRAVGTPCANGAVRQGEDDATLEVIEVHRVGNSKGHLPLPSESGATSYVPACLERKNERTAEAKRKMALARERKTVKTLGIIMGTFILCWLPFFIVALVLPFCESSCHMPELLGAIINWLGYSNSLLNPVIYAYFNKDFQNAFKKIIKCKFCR

[3] = biological target: T2, Alpha-1B adrenergic receptor (Homo sapiens, UniProt P35368); assay: Binding affinity against Adrenogenic Alpha-1B receptor
T2 sequence (P35368 whole entry): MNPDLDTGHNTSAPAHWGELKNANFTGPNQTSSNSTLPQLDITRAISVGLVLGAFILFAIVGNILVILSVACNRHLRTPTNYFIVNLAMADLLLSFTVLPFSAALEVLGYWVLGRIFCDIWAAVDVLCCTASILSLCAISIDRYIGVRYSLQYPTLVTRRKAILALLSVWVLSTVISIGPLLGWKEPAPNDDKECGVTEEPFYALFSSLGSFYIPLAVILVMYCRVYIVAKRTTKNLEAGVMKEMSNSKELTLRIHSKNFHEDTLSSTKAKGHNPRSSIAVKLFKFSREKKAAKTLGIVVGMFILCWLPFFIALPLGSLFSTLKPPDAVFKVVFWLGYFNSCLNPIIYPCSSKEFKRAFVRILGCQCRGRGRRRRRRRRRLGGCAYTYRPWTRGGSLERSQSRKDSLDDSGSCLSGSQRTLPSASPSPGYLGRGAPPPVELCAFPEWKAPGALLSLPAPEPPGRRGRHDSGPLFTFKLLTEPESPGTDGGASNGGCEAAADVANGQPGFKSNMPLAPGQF

[4] = biological target: T3, 5-hydroxytryptamine receptor 4 (Homo sapiens, UniProt Q13639); assay: Binding affinity against 5-hydroxytryptamine 4 receptor
[5] = biological target: T4, Alpha-2A adrenergic receptor (Homo sapiens, UniProt P08913); assay: Binding affinity against Alpha-2A adrenergic receptor
T4 sequence (P08913 whole entry): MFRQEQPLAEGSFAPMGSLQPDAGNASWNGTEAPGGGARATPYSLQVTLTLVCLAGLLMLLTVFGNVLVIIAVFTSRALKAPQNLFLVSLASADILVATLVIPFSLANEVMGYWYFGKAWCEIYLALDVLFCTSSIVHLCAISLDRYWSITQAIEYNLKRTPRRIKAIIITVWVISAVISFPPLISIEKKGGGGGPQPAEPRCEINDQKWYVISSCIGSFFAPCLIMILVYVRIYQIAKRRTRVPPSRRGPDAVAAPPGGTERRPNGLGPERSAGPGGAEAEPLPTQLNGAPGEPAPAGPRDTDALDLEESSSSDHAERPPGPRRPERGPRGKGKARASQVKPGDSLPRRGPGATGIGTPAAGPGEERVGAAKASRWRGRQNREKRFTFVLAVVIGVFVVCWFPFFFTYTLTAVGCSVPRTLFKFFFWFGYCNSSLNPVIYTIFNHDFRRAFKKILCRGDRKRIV

[6] = biological target: T5, 5-hydroxytryptamine receptor 2C (Homo sapiens, UniProt P28335); assay: Binding affinity against 5-hydroxytryptamine 2C receptor
T5 sequence (P28335 whole entry): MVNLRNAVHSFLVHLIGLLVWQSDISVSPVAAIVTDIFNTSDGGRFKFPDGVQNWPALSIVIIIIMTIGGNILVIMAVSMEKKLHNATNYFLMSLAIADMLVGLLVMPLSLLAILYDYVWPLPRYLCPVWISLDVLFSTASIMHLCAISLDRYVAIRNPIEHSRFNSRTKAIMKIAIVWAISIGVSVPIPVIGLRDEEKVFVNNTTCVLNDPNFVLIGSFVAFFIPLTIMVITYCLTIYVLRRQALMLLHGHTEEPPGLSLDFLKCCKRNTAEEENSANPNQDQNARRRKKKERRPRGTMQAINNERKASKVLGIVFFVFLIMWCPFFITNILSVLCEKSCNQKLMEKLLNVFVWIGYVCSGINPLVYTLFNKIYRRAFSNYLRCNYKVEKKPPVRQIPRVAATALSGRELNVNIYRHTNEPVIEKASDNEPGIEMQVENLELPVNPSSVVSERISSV

[7] = biological target: T6, Muscarinic acetylcholine receptor M1 (Homo sapiens, UniProt P11229); assay: Binding affinity against Muscarinic M1 receptor
T6 sequence (P11229 whole entry): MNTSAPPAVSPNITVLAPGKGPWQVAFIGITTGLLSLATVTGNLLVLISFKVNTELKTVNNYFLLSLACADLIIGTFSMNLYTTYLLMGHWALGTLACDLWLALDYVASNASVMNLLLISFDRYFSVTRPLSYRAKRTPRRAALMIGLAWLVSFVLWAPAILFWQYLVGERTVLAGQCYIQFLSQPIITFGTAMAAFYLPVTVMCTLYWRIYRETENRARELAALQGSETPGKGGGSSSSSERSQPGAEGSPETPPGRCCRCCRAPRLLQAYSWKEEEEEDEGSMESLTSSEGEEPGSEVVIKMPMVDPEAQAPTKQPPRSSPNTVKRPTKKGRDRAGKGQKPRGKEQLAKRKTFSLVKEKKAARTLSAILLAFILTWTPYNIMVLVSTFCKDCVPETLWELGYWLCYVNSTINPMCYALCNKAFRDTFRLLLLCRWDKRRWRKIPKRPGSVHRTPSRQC

Rattus norvegicus [8] = species: Rattus norvegicus; assay: Tested for maximum response in depolarization of isolated rat vagus nerve measured at dose 10 uM; type: functional
[9] = biological target: T3, 5-hydroxytryptamine receptor 4; assay: Binding affinity against 5-Hydroxytryptamine 4 receptor

T3 sequence (Q13639 whole entry): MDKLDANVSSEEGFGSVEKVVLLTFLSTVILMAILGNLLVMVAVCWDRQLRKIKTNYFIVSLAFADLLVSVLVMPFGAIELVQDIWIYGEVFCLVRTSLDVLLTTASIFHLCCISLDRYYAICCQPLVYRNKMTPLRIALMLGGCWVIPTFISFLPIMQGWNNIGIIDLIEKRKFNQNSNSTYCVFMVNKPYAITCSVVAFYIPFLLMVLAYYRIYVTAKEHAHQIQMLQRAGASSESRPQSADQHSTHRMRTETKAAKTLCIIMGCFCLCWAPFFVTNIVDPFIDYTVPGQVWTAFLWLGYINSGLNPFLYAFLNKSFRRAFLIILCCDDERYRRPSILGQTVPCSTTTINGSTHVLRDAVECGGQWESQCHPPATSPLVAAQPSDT

Structure (SMILES)	Max response (Rattus norvegicus [1]) [uV]	Ki [2] [µM]	Ki [3] [µM]	Ki [4] [µM]	Ki [5] [µM]	Ki [6] [µM]	Ki [7] [µM]	Max response (Rattus norvegicus [8]) [uV]	Ki [9] [µM]
Cn1cc(C(=O)C(=O)N[C@H]2CN3CCC2CC3)c2ccccc21	140	> 100	> 10	0.251	7.94	15.8	10		
Cn1cc(C(=O)C(=O)N[C@@H]2CN3CCC2CC3)c2ccccc21		> 100	15.8		31.6	12.6	25.1	167	0.398
